Measured values as given in patent publication EP0064445A1, “N-substituted 2,4-dialkoxybenzene sulfon amides” (CHOAY S.A., priority 1981, dated 1982).

Tested on: souris SWISS
Experiment: Interaction with pentobarbital: pentobarbital sleep time in mice
Type: in vivo
Conditions: 200 mg/kg oral; for Temps de sommeil (pentobarbital): male SWISS mice, lots of 10, 60 min before pentobarbital 40 mg/kg i.p.; for effet sur le sommeil au pentobarbital: result in words, mice
Excerpt: Les essais sont réalisés sur des souris SWISS, EOPS de sexe mâle, pesant de 20 à 24 g, en provenance du centre d'élevage de LE GENEST.
Les animaux sont acclimatés au moins 8 jours à l'animalerie du laboratoire avant les essais.
Les lots sont de 10 souris par test et par produit.
A titre de produits de référence, pour effectuer les essais témoins, on a utilisé les trois substances suivantes : • - N-[(éthyl-1 pyrrolidinyl-2) méthy17méthoxy-2 sulfamoyl-5 benzamide connue sous la désignation sulpiride; • - N-[(éthyl-1 pyrrolidinyl-2)méthy17méthoxy-2 éthylsulfonyl-5 benzamide connue sous la désignation sultopride; • - N-(diéthylamino-2 éthyl) méthoxy-2 méthylsulfonyl-5 benzamide connue sous la désignation tiapride.
Les composés selon l'invention et les substances de référence sont administrés en suspension aqueuse dans l'eau ordinaire à 3% en gomme arabique pour la voie orale (tests d'interactions avec les barbituriques).
Le réactif pharmacologique à savoir le pentobarbital est administré en solution dans du soluté isotonique de NaCl.
Les volumes administrés sont de 0,5 ml d'une solution à 1,6 g/1 pour 20 g de poids corporel par voie intrapérito- néale (40 mg/kg).
Pour effectuer ces essais, on administre à des lots de 10 souris SWISS mâles les composés selon l'invention ou les produits de référence (à savoir sulpiride, sultopride ou tiapride) par voie orale à raison de 200 mg/kg. 60 minutes après l'ingestion des composés selon l'invention ou des produits de référence, on administre aux animaux le pentobarbital sous forme sodique tel que celui commercialisé sous la marque NEMBUTAL. On mesure ensuite : • - le temps d'endormissement, • - le temps de sommeil, et on détermine le paurcentage de variations en plus ou en moins du temps de sommeil. Les résultats de ces essais figurent dans le tableau II suivant.

Compound | Temps de sommeil (pentobarbital) [mn] | effet sur le sommeil au pentobarbital
COc1cc(OC)c(S(=O)(=O)NCCN2CCCC2)cc1Cl [Produit 882] | 176 ± 21 | 
COc1cc(OC)c(S(=O)(=O)NCCN2CCCCC2)cc1Cl [Produit 883] | 176 ± 12 | 
COc1cc(OC)c(S(=O)(=O)NCCN2CCOCC2)cc1Cl [Produit 884] | 150 ± 24 | 
COc1cc(OC)c(S(=O)(=O)NCCCN2CCCCC2)cc1Cl [Produit 888] | 140 ± 20 | 
COc1cc(OC)c(S(=O)(=O)NCCCN2CCOCC2)cc1Cl [Produit 889] | 156 ± 15 | 
COc1cc(OC)c(S(=O)(=O)NCCN2CCCC2)cc1Br [Produit 926] | 168 ± 30 | 
COc1cc(OC)c(S(=O)(=O)NCCN2CCCCC2)cc1Br [Produit 927] | 169 ± 26 | 
COc1cc(OC)c(S(=O)(=O)NCCN2CCOCC2)cc1Br [Produit 928] | 165 ± 24 | 
COc1cc(OC)c(S(=O)(=O)NCCCN2CCCCC2)cc1Br [Produit 932] | 142 ± 15 | 
COc1cc(OC)c(S(=O)(=O)NCCCN2CCOCC2)cc1Br [Produit 933] | 180 ± 32 | 
CCN1CCCC1CNC(=O)c1cc(S(N)(=O)=O)ccc1OC (stereo not shown) [sulpiride, reference compound] |  | tantôt potentialisateur, tantôt antagoniste
CCN1CCCC1CNC(=O)c1cc(S(=O)(=O)CC)ccc1OC (stereo not shown) [sultopride, reference compound] |  | potentialisateurs
CCN(CC)CCNC(=O)c1cc(S(C)(=O)=O)ccc1OC [tiapride, N-(diéthylamino-2 éthyl) méthoxy-2 méthylsulfonyl-5 benzamide, reference compound] |  | potentialisateurs
